Laboratory results reported in the supplement of paper PMC10307832.

Legend:
Test in all cases: relative viability (nuclei count vs DMSO), 5 days (fraction); higher = more cells survive
[1] = compound: CC1=CC(=CC=C1)NC2=NC(=CS2)C3=CC=NC=C3 + O=C(CCCCCCC(=O)Nc1ccccc1)NO [Vorinostat] (partner 1 µM)
Summary of the method: (§1)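 Lung cancer cell lines in 1536-well plates got either a single drug or a fixed anchor-drug dose together with five library-drug doses (not always all listed) in √10 steps, by pin tool, on the day after seeding. Nuclei were counted after 5 days, and relative viability is the treated-to-vehicle ratio of nuclei counts. Values are medians of duplicate plates.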

[2] = compound: CC1=CC(=CC=C1)NC2=NC(=CS2)C3=CC=NC=C3 + N=C(N)NC(=N)NCCc1ccccc1 [Phenformin] (partner 250 µM)
Summary of the method: as §1

Masitinib + Vorinostat = compound: Cc1ccc(NC(=O)c2ccc(CN3CCN(C)CC3)cc2)cc1Nc1nc(-c2cccnc2)cs1 [Masitinib] + O=C(CCCCCCC(=O)Nc1ccccc1)NO [Vorinostat] (partner 1 µM)
Summary of the method: as §1

Masitinib + Lapatinib = compound: Cc1ccc(NC(=O)c2ccc(CN3CCN(C)CC3)cc2)cc1Nc1nc(-c2cccnc2)cs1 [Masitinib] + CS(=O)(=O)CCNCc1ccc(-c2ccc3ncnc(Nc4ccc(OCc5cccc(F)c5)c(Cl)c4)c3c2)o1 [Lapatinib] (partner 2 µM)
Summary of the method: as §1

Cell Line	relative viability ([1]; first compound 0.08 µM)	relative viability ([1]; first compound 0.253 µM)	relative viability ([1]; first compound 0.8 µM)	relative viability ([1]; first compound 2.53 µM)	relative viability ([1]; first compound 8 µM)	relative viability ([2]; first compound 0.08 µM)	relative viability ([2]; first compound 0.253 µM)	relative viability ([2]; first compound 0.8 µM)	relative viability ([2]; first compound 2.53 µM)	relative viability ([2]; first compound 8 µM)	relative viability (Masitinib + Vorinostat; first compound 0.01 µM)	relative viability (Masitinib + Vorinostat; first compound 0.03162 µM)	relative viability (Masitinib + Vorinostat; first compound 0.1 µM)	relative viability (Masitinib + Vorinostat; first compound 0.3162 µM)	relative viability (Masitinib + Vorinostat; first compound 1 µM)	relative viability (Masitinib + Lapatinib; first compound 0.01 µM)	relative viability (Masitinib + Lapatinib; first compound 0.1 µM)	relative viability (Masitinib + Lapatinib; first compound 0.3162 µM)	relative viability (Masitinib + Lapatinib; first compound 1 µM)	relative viability (Masitinib + Lapatinib; first compound 0.03162 µM)
NCI-H1993	0.691	0.649	0.726	0.819	0.726	0.445	0.601	0.547	0.529	0.48	0.727	0.527	0.943	0.723	0.762	0.438	0.913	0.776	0.678	–
CAL-12T	0.565	0.74	0.85	0.609	0.716	0.513	0.518	0.604	0.537	0.516	0.942	0.756	0.904	0.986	0.684	0.612	0.745	0.592	0.499	0.729
NCI-H1623	–	–	–	–	–	0.577	0.585	0.564	0.513	0.565	–	–	–	–	–	–	–	–	–	–
HCC-44	1.02	0.926	0.826	0.797	0.825	0.128	0.198	0.3	0.171	0.294	0.914	1.1	1.06	1.06	1.03	0.911	1.05	0.856	0.951	0.98
EKVX	0.31	0.585	0.507	0.488	0.502	0.225	0.212	0.228	0.204	0.215	0.626	0.653	0.643	0.678	0.696	–	0.198	0.158	0.196	0.165
NCI-H1666	0.622	0.821	0.702	0.79	0.735	0.526	0.489	0.547	0.513	0.451	1.08	0.875	1.09	1.02	1.09	0.677	0.706	0.428	0.557	0.657
NCI-H2170	0.695	0.901	0.731	0.697	0.599	0.396	0.436	0.431	0.4	0.397	0.781	0.708	0.908	0.869	0.823	0.269	0.267	0.264	0.262	0.275
NCI-H1734	0.725	0.77	0.782	0.752	0.681	0.401	0.353	0.399	0.456	0.38	0.751	0.756	0.773	0.779	0.794	0.915	1.02	0.85	1	0.956
Calu-6	–	–	–	–	–	–	–	–	–	–	–	–	–	–	–	1.05	1.25	0.938	1.05	1.01
EBC-1	–	–	–	–	–	–	–	–	–	–	–	–	–	–	–	0.191	0.197	0.196	0.21	0.235
A-427	0.815	0.835	0.857	0.912	0.753	0.355	0.28	0.355	0.326	0.244	0.608	0.827	0.791	0.826	0.827	–	–	1.17	1.03	1.02
NCI-H2405	0.874	0.613	0.892	–	0.839	0.344	0.352	0.347	0.411	0.434	0.791	0.937	0.858	0.938	0.909	0.921	0.953	0.946	0.952	1.09
NCI-H1437	0.722	0.732	0.611	0.718	0.362	0.253	0.25	0.309	0.253	0.246	0.798	0.799	0.932	0.789	0.75	0.661	0.798	0.832	0.728	0.755
SK-MES-1	0.851	0.829	0.819	0.86	0.822	0.626	0.565	0.592	0.656	0.547	0.876	1.15	1.03	0.984	1.07	0.473	0.518	0.386	0.45	0.426
RERF-LC-KJ	0.662	0.541	0.526	0.373	0.279	0.449	0.403	0.373	0.384	0.363	0.587	0.783	0.752	0.541	0.646	0.94	0.83	0.73	0.719	0.705
NCI-H23	0.519	0.613	0.596	0.526	0.612	0.787	0.711	0.717	0.82	0.779	0.564	0.462	0.547	0.454	0.501	0.889	1.16	1.19	1.09	0.829
HOP-62	0.531	0.605	0.591	0.584	0.595	0.683	0.609	0.804	0.722	0.65	0.588	0.573	0.681	0.746	0.687	0.814	0.854	1.31	0.937	1.11
HARA	0.492	0.523	0.501	0.391	0.302	0.338	0.476	0.413	0.427	0.347	0.498	0.539	0.57	0.521	0.485	0.582	0.855	0.675	0.719	0.78
